These results are taken from patent publication US6737435B1, “Indole derivatives and their use as MCP-1 antagonist” (AstraZeneca AB, priority 1999, dated 2004).

The test system of test [1] is THP-1 cells. The test is described as follows: hMCP-1 mediated chemotaxis. In kind it is cell-based, human. To be noted: biphasic response. On the procedure: In vitro chemotaxis assays were performed using the human monocytic cell line THP-1. Cell migration through polycarbonate membranes was measured by enumerating those passing through either directly by Coulter counting or indirectly by use of a colourimetric viability assay measuring the cleavage of a tetrazolium salt by the mitochondrial respiratory chain (Scudiero D. A. et al. 1988, Cancer Res., 48, 4827-4833).
Chemoattractants were introduced into a 96-well microtitre plate which forms the lower well of a chemotaxis chamber fitted with a PVP-free 5 μm poresize polycarbonate adhesive framed filter membrane (NeuroProbe MB series, Cabin John, Md. 20818, USA) according to the manufacturer's instructions. […] The plate was incubated at 37° C. for 3 h and the absorbance of the soluble formazan product was read on a microtitre plate reader at 450 nm. The data was input into a spreadsheet, corrected for any random migration in the absence of chemoattractant and the average absorbance values, standard error of the mean, and significance tests were calculated. hMCP-1 induced concentration dependent cell migration with a characteristic biphasic response, maximal […]. […]

The subject of test [2] is THP-1 cells. The test is described as follows: MCP-1 mediated calcium flux in THP-1 cells. Format: cell-based, human. To be noted: stimulation of THP-1 cells with hMCP-1, FURA-2; read-out: EC50 of rise in [Ca2+]i. On the procedure:
The human monocytic cell line THP-1 was grown in a synthetic cell culture medium RPMI 1640 supplemented with 10% foetal calf serum, 6 mM glutamine and Penicillin-Streptomycin (at 50 μg streptomycin/ml, Gibco BRL). THP-1 cells were washed in HBSS (lacking Ca^2+ and Mg^2+)+1 mg/ml BSA and resuspended in the same buffer at a density of 3×10^6 cells/ml. The cells were then loaded with […] FURA-2/AM for 30 min at 37° C., washed twice in HBSS, and resuspended at 1×10^6 cells/ml. THP-1 cell suspension (0.9 ml) was added to a 5 ml disposable cuvette containing a magnetic stirrer bar and 2.1 ml of prewarmed (37° C.) HBSS containing 1 mg/ml BSA, 1 mM MgCl2 and 2 mM CaCl2. The cuvette was placed in a fluorescence spectrophotometer (Perkin Elmer, Norwalk, Conn.) and preincubated for 4 min at 37° C. with stirring. Fluorescence was recorded over 70 sec and cells were stimulated by addition of hMCP-1 to the cuvette after 10 sec. [Ca^2+]i was measured by excitation at 340 nm and 380 nm alternately and subsequent measurement of the intensity of the fluorescence emission at 510 nm.
where the Kd for FURA-2 Ca^2+ complex at 37° C. was taken to be 224 nm. […]

Test [3] concerns the target T1, MCP-1 receptor B (CCR2B) (Homo sapiens, UniProt P41597).
T1 construct: expressed in transfected cells; host or cells: CHO-K1 (clone 7, CHO-CCR2B), stably transfected with pCDNA3/CCR2B; membrane fragments
T1 sequence (P41597 1-360 isoform P41597-2): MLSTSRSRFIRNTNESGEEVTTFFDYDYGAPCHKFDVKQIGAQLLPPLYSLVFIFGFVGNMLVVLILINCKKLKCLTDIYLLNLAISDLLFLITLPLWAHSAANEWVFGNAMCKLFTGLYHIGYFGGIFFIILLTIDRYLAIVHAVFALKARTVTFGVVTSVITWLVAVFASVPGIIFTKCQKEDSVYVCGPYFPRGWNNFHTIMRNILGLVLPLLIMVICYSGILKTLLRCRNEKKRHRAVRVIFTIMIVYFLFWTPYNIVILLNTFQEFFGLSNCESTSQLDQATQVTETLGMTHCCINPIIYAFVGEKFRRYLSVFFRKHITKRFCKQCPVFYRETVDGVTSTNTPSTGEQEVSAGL
The test is described as follows: hMCP-1 receptor binding assay (125I-MCP-1, CHO-CCR2B cell membranes). The source says:
The MCP-1 receptor B (CCR2B) cDNA was cloned by PCR from THP-1 cell RNA using suitable oligonucleotide primers based on the published MCP-1 receptor sequences (Charo et al., 1994, Proc. Natl. Acad. Sci. USA, 91, 2752). The resulting PCR products were cloned into vector PCR-II™ (InVitrogen, San Diego, Calif.). Error free CCR2B cDNA was subcloned as a Hind III-Not I fragment into the eukaryotic expression vector pCDNA3 (InVitrogen) to generate pCDNA3/CC-CKR2A and pCDNA3/CCR2B respectively.
Linearised pCDNA3/CCR2B DNA was transfected into CHO-K1 cells by calcium phosphate precipitation (Wigler et al., 1979, Cell, 16, 777). Transfected cells were selected by the addition of Geneticin Sulphate (G418, Gibco BRL) at 1 mg/ml, 24 hours after the cells had been transfected. Preparation of RNA and Northern blotting were carried out as described previously (Needham et al., 1995, Prot. Express. Purific., 6, 134). CHO-K1 clone 7 (CHO-CCR2B) was identified as the highest MCP-1 receptor B expresser.
CHO-CCR2B cells were grown in DMEM supplemented with 10% foetal calf serum, 2 mM glutamine, 1×Non-Essential Amino Acids, 1×Hypoxanthine and Thymidine Supplement and Penicillin-Streptomycin (at 50 μg streptomycin/ml, Gibco BRL). Membrane fragments were prepared using cell lysis/differential centrifugation methods as described previously (Siciliano et al., 1990, J. Biol. Chem., 265, 19658). […]

As a reminder, the EC50 is the concentration that produces a half-maximal response. Usually IC50 stands for the concentration that inhibits the measured activity by half. A high value points to weaker potency in that assay. In general, Kd refers to the equilibrium constant for the complex coming apart. For the substance “MCP-1: Human Monocyte Chemoattractant Protein-1, the chemokine ligand of the CCR2 receptor”, the “concentration of maximal cell migration” value in test [1] was 0.5-1.0 nm. Further, in test [2], the EC50 is about 2 nM. The IC50 in test [3] (cold competition, 100 pM 125I-labeled MCP-1, CHO-CCR2B membrane fragments) turned out to be 0.11 nM. For the same substance, in test [3] (equilibrium binding, CHO-CCR2B membrane fragments), binding was put at a Kd of 0.12 nM.
